Data set [1] is described as follows: Antiproliferative activity against mouse MEF cells assessed as inhibition of cell proliferation measured after 72 hrs by CCK-8 method. It counts as functional, cell-based.
The subject of data set [2] is HTM. As to the kind of experiment: Upregulation of NO level in HTM cells at 5 uM incubated for 12 hrs by DAF-FM DA fluorescent probe based flow cytometry analysis. It counts as functional, cell-based. Conditions: Homo sapiens.
Data set [3] in a line: Senolytics index ratio of IC50 for antiproliferative activity against mouse MEF cells to IC50 for inhibition of senescence in mouse MEF cells. Format: functional.
Data set [4] can be described thus: Inhibition of senescence in mouse MEF cells measured after 72 hrs by CCK-8 method. It counts as functional, cell-based.
In data set [5] the test system is Mus musculus. The data set can be described thus: Neuroprotective activity against magnetic microbead-induced ocular hypertensive COHT C57BL/6J mouse model assessed as protection effect on retinal ganglion cells (RGC) at 10 mM administered eye drop thrice a day for 10 days. Format: functional, organism-based. The settings on record: time 10.0 day.
In data set [6] the test system is Mus musculus. As to the kind of experiment: Anti-glaucoma activity against magnetic microbead-induced ocular hypertensive COHT C57BL/6J mouse model assessed as reduction in number of SA-betaGal positive cells per unit area of whole flat-mount retina at 10 mM administered eye drop thrice a day for 10 days by SA-beta Gal staining based […]. It counts as functional, organism-based. Conditions: time 10.0 day.

The subject of data set [7] is Mus musculus. As to the kind of experiment: Neuroprotective activity against magnetic microbead-induced ocular hypertensive COHT C57BL/6J mouse model assessed as improvement in N1 wave amplitude at 10 mM administered eye drop thrice a day for 10 days […]. Format: functional, organism-based. The settings on record: time 10.0 day.
Data set [8] deals with HTM. The data set can be described thus: Anti-glaucoma activity in BLEO-induced senescence in HTM cells assessed as decrease in proportion of SA-beta-Gal positive cells at 5 uM measured for 48 hrs by senescence-associated galactosidase staining based microscopic analysis. Format: functional, cell-based. The settings on record: Homo sapiens.
In data set [9] the test system is Mus musculus. As to the kind of experiment: Anti-glaucoma activity against magnetic microbead-induced ocular hypertensive COHT C57BL/6J mouse model assessed as reduction in intraocular pressure administered as 10 mM eye drop measured after 2 to 4 hrs. It counts as functional, organism-based. Conditions: time 2-4 hrs.
The subject of data set [10] is HTM. As to the kind of experiment: Upregulation of cGMP level in HTM cells at 5 uM incubated for 24 hrs by ELISA method. Format: functional, cell-based. Conditions: Homo sapiens.
The test system of data set [11] is Mus musculus. As to the kind of experiment: Anti-glaucoma activity against magnetic microbead-induced ocular hypertensive COHT C57BL/6J mouse model assessed as reduction in intraocular pressure administered as 10 mM eye drop measured after 8 hrs. Format: functional, organism-based.
In data set [12] the test system is Mus musculus. As to the kind of experiment: Neuroprotective activity against magnetic microbead-induced ocular hypertensive COHT C57BL/6J mouse model assessed as improvement in peak time of N1 wave at 10 mM administered eye drop thrice a day for 10 days […]. Conditions: time 10.0 day. It counts as functional, organism-based.
Data set [13] has as its system Mus musculus. As to the kind of experiment: Neuroprotective activity against magnetic microbead-induced ocular hypertensive COHT C57BL/6J mouse model assessed as improvement in visual acuity of mouse at 10 mM administered eye drop thrice a day for 10 days by Optokinetic Reflex Assay. It counts as functional, organism-based. Conditions: time 10.0 day.
Data set [14] concerns Mus musculus. The data set can be described thus: Anti-glaucoma activity against magnetic microbead-induced ocular hypertensive COHT C57BL/6J mouse model assessed as reduction in fraction of SA-beta-Gal positive area in retina at 10 mM administered eye drop thrice a day for 10 days by SA-beta Gal staining based […]. It counts as functional, organism-based. Conditions: time 10.0 day.

The subject of data set [15] is Mus musculus. As to the kind of experiment: Neuroprotective activity against magnetic microbead-induced ocular hypertensive COHT C57BL/6J mouse model assessed as increase in retinal ganglion cells (RGC) survival at 10 mM administered eye drop thrice a day for 10 days by immunofluorescence staining based analysis. It counts as functional, organism-based. Conditions: time 10.0 day.

Data set [16] is described as follows: Toxicity in C57BL/6J mouse assessed as effect on discernible conjunctival hyperemia administered as 10 mM eye drop measured up to 4 hrs. The settings on record: in vivo, topical_or_ocular, 10000 µM.
The test system of data set [17] is Mus musculus. As to the kind of experiment: Anti-glaucoma activity against magnetic microbead-induced ocular hypertensive COHT C57BL/6J mouse model assessed as reduction in intraocular pressure administered as 10 mM eye drop measured after 2 to 8 hrs. Format: functional, organism-based. The settings on record: time 2-8 hrs.
Data set [18] has as its system Mus musculus. As to the kind of experiment: Anti-glaucoma activity against magnetic microbead-induced ocular hypertensive COHT C57BL/6J mouse model assessed as intraocular pressure lowering efficacy administered as 10 mM eye drop measured after 4 hrs. It counts as functional.

The record followed here is ChEMBL document CHEMBL6134874, “Identification of Nitric Oxide Donating Dasatinib Derivatives with Intraocular Pressure Lowering and Senolytic Activities” (J Med Chem, 2025).

What is called IC50 is the concentration that gives 50% inhibition.

The structures appear in SMILES notation. The source made the active and inactive calls. The rule behind the calls is not given here.

For the compound `Cc1nc(Nc2ncc(C(=O)Nc3c(C)cccc3Cl)s2)cc(N2CCN(CCO[N+](=O)[O-])CC2)n1`, the IC50 in data set [1] (Mus musculus, MEF, 72 h) was 1530 nM; in [4] (Mus musculus, MEF, 72 h), 1190 nM. Also, in the data set on HTM [2], the result was Active. In data set [3], the “Ratio IC50” value is 1.29.
With `Cc1nc(Nc2ncc(C(=O)Nc3c(C)cccc3Cl)s2)cc(N2CCN(CCOC(=O)CCC(=O)OCCOCCOc3no[n+]([O-])c3S(=O)(=O)c3ccccc3)CC2)n1` [listing 1 of 2 here], the half-inhibitory concentration (IC50) in data set [1] (Mus musculus, MEF, 72 h) stood at 1100 nM; in data set [4] (Mus musculus, MEF, 72 h), 480 nM. The “Ratio IC50” value in [3] turned out to be 2.28.
With `Cc1nc(Nc2ncc(C(=O)Nc3c(C)cccc3Cl)s2)cc(N2CCN(CCOC(=O)CCC(=O)OCCCCOc3no[n+]([O-])c3S(=O)(=O)c3ccccc3)CC2)n1`, the IC50 in data set [1] (Mus musculus, MEF, 72 h) was 2350 nM; in [4] (Mus musculus, MEF, 72 h), 1240 nM. Also, the “Ratio IC50” value in data set [3] stood at 1.9.
Take `Cc1nc(Nc2ncc(C(=O)Nc3c(C)cccc3Cl)s2)cc(N2CCN(CCOC(=O)COc3no[n+]([O-])c3C)CC2)n1`: the IC50 in [1] (Mus musculus, MEF, 72 h) was 1280 nM; in data set [4] (Mus musculus, MEF, 72 h) it was 520 nM. For the same compound, the “Ratio IC50” value in data set [3] is listed as 2.45.
For `Cc1nc(Nc2ncc(C(=O)Nc3c(C)cccc3Cl)s2)cc(N2CCN(CCOC(=O)CCC(=O)OCCO[N+](=O)[O-])CC2)n1` the same measures were 1750 nM, 410 nM and 4.3.
On the same counts, the results for `Cc1nc(Nc2ncc(C(=O)Nc3c(C)cccc3Cl)s2)cc(N2CCN(CCOC(=O)CCC(=O)OCCCCCO[N+](=O)[O-])CC2)n1` are 1310 nM, 3290 nM and 0.4.
Turning to `Cc1nc(Nc2ncc(C(=O)Nc3c(C)cccc3Cl)s2)cc(N2CCN(CCOC(=O)CCC(=O)OCCOCCOc3no[n+]([O-])c3S(=O)(=O)c3ccccc3)CC2)n1` [listing 2 of 2 here], the Activity result is recorded as “Active; Compound Showed Significant Effect Than Dasatinib” with Mus musculus [5] and “Active; Compound Showed More Pronounced Effect Then Dasatinib” in the data set with Mus musculus [15]. Besides, the outcome with Mus musculus [6], in the data set with Mus musculus [7], with HTM [8], with Mus musculus [9], with HTM [10] and in the data set with Mus musculus [12] was Active. Further, the result in the data set with HTM [2], in the data set with Mus musculus [13] and in the data set on Mus musculus [14] was Active. In addition, the outcome in the data set with Mus musculus [11] was inactive.
Consider `Cc1nc(Nc2ncc(C(=O)Nc3c(C)cccc3Cl)s2)cc(N2CCN(CCOC(=O)CCC(=O)O[C@@H]3CO[C@H]4[C@@H]3OC[C@@H]4O[N+](=O)[O-])CC2)n1`, for which the IC50 in data set [1] (Mus musculus, MEF, 72 h) is 330 nM; in data set [4] (Mus musculus, MEF, 72 h), 540 nM. Also, in data set [3], the “Ratio IC50” value was found to be 0.61.
With `Cc1nc(Nc2ncc(C(=O)Nc3c(C)cccc3Cl)s2)cc(N2CCN(CCO)CC2)n1` [DASATINIB ANHYDROUS], in data set [16], the Activity entry is “Non-toxic”. Further, the result with Mus musculus [5], in the data set on Mus musculus [6], in the data set with Mus musculus [7], with HTM [8], with Mus musculus [12] and with Mus musculus [14] was Active. The outcome in the data set on Mus musculus [15] was Active. The IC50 in data set [1] (Mus musculus, MEF, 72 h) is 2850 nM; in data set [4] (Mus musculus, MEF, 72 h) it was 510 nM. The result in the data set on Mus musculus [13] and in the data set with Mus musculus [17] was inactive. The “Ratio IC50” value in data set [3] is recorded as 5.55.
On to `Cc1nc(Nc2ncc(C(=O)Nc3c(C)cccc3Cl)s2)cc(N2CCN(CCOC(=O)CCC(=O)OCCCO[N+](=O)[O-])CC2)n1`, for which the 50% inhibitory concentration (IC50) in [1] (Mus musculus, MEF, 72 h) came to 1420 nM; in [4] (Mus musculus, MEF, 72 h), 450 nM. Moreover, the “Ratio IC50” value in data set [3] came to 3.13.
On the same counts, the results for `Cc1nc(Nc2ncc(C(=O)Nc3c(C)cccc3Cl)s2)cc(N2CCN(CCOC(=O)CCC(=O)OCCCCO[N+](=O)[O-])CC2)n1` are 1780 nM, 1070 nM and 1.67.
Take `CS(=O)(=O)O.CS(=O)(=O)O.CS(=O)(=O)O.Cc1nc(Nc2ncc(C(=O)Nc3c(C)cccc3Cl)s2)cc(N2CCN(CCOC(=O)CCC(=O)OCCOCCOc3no[n+]([O-])c3S(=O)(=O)c3ccccc3)CC2)n1`: the Activity result in data set [16] is “Non-toxic”; with Mus musculus [18], 3.6 mmHg. Moreover, the IC50 was found to be 1230 nM in [1] (mef) and 380 nM in data set [4] (mef). Besides, the “Ratio IC50” value in data set [3] was found to be 3.25.
As to `Cc1nc(Nc2ncc(C(=O)Nc3c(C)cccc3Cl)s2)cc(N2CCN(CCOC(=O)CCC(=O)OCCOc3no[n+]([O-])c3C)CC2)n1`, the IC50 in data set [1] (Mus musculus, MEF, 72 h) was 1340 nM; in data set [4] (Mus musculus, MEF, 72 h), 490 nM. Further, the “Ratio IC50” value in [3] is 2.73.
Take `CS(=O)(=O)O.CS(=O)(=O)O.CS(=O)(=O)O.Cc1nc(Nc2ncc(C(=O)Nc3c(C)cccc3Cl)s2)cc(N2CCN(CCOC(=O)CCC(=O)OCCCCOc3no[n+]([O-])c3S(=O)(=O)c3ccccc3)CC2)n1`: the IC50 in data set [1] (mef) was found to be 1310 nM; in data set [4] (mef), 750 nM. Besides, the “Ratio IC50” value in [3] amounted to 1.76.
